The values below come from paper PMC9048745, “Physicochemical investigation of a novel curcumin diethyl γ-aminobutyrate, a carbamate ester prodrug of curcumin with enhanced anti-neuroinflammatory activity” (PLoS ONE, 2022).

Series [1] has as its system IL-6 release in LPS-stimulated BV-2 microglial cells. In words: IL-6 ELISA. Type of series: cell-based, murine. As to conditions: 10 μM, 12 h pre-incubation, then 1 μg/mL LPS 24 h; compared with curcumin. The method, then: BV-2 microglial cells were plated in a 24-well plate at a density of 2 × 10^5 per well for 24 h. The cells were pre-incubated for 12 h with curcumin (10 μM), CUR-2GE (10 μM), medium (DMEM), or a vehicle (0.5% DMSO). The cells were then induced with 1 μg/mL LPS for 24 h. The culture medium samples were collected and analyzed for nitric oxide (NO) and cytokines (TNF- and IL-6) using NO and enzyme-linked immunoassay (ELISA) assays, respectively.
Quantification of TNF-α and IL-6 was performed using commercially available ELISA kits according to the manufacturer’s protocol (BioLegend, San Diego, CA, USA). The absorbance was measured at 450 nm using the microplate reader, and the amount of TNF-α and IL-6 was determined against their corresponding standard curves of TNF-α and IL-6.
On the technique in general: An ELISA detects its analyte on a solid surface through an enzyme-linked reagent.

A short description of series [2]: Partition coefficient, shake flask method (OECD 107). Type of series: physicochemical. Particulars: 25°C, aqueous phase not detectable, LOQ of 0.05 μg/mL used for calculation. As to the method: The partition coefficient of CUR-2GE was quantified using the shake flask method according to the guideline of OECD 107 with some modifications. A saturated mixture of n-octanol/water was firstly prepared at 25°C by stirring an equal volume of n-octanol/water for 24 h and left standing until complete separation. A 1 mg of CUR-2GE was dissolved in saturated n-octanol and water at volume ratios of 1:1, 1:2 and 2:1 in screw cap tubes. Experiments were run in duplicate. The tube was shaken through 180° over the transverse axis approximately 100 times in 5 min at room temperature (25°C) to reach equilibrium and phase distribution. The phases were then separated by centrifugation at 25°C at 5,500 rpm for 10 min. […] CUR-2GE concentrations in each phase were analyzed by UPLC, and the Po/w value was determined. In addition to water used as an aqueous phase, the partition coefficient between n-octanol and buffer at pH 4.5 and the Po/buffer pH 4.5 value were determined (see S1 Appendix).
The Po/w value and Po/buffer pH 4.5 value were calculated by Eq. 3 and Eq. 4, respectively. The Log Po/w and Log Po/buffer pH 4.5 were evaluated from the average results (n = 6) from three solvent ratios, where the results fall within the range of variation of ± 0.3 units. […]
The half-lives (t1/2) of CUR-2GE were calculated by Eq. 6: […]

Series [3] in a line: Solubility mimicking gastrointestinal pH, with and without 0.5% SLS; dose number (D0). Type of series: physicochemical. Particulars: for solubility at 1 h: thermodynamic from solid. As to the method:
For solubility mimicking gastrointestinal pH, an excess amount of CUR-2GE (1 mg) was added to a vial containing 2 mL of buffer pH 1.2, 4.5 or 6.8 with and without a surfactant (0.5% SLS). The mixture was sonicated for 1 h before orbital shaking at 37°C at 100 rpm for 1 h. After that, the mixture was centrifuged at 25°C at 14,000 rpm for 10 min prior to UPLC analysis. Experiments were performed in triplicate. The dose number (D0) at different media was determined and the BSC solubility class was assigned. (see S1 Appendix).
S1 Appendix. Experimental procedures
The solubility category was classified according to USP [1] as very soluble (>1000 mg/mL), freely soluble (100-1000 mg/mL), soluble (33-100 mg/mL), sparingly soluble (10-33 mg/mL), slightly soluble (1-10 mg/mL), very slightly soluble (0.1-1 mg/mL) and practically […]
The percentage of CUR-2GE in the undissociated form at various pH values were calculated based on Henderson-Hasselbalch using Eq. 1:
%Undissociated form = 100 - antilog (pH-pKa) x 100 (1)
Where pH; pH value of the medium for solubilization, pKa; negative logarithm of the dissociation constant (Ka) of CUR-2GE with computed using the Marvin (Product version: 21.8.0) of ChemAxon (Budapest, Hungary) (http://www.chemaxon.com) accessed on June 2021.
The dose number (D0) was calculated to assign the BSC solubility class, the D0 for each pH buffer solution without surfactant was calculated using the following Eq. 2: […]
Where M0 is the highest dose strength (mg) of capsule equivalent to curcumin, the adopted dose of CUR-2GE is 927 mg equivalent to curcumin 500 mg dose. V0 is the initial gastric volume (≈250 mL), Cs is the saturation solubility of CUR-2GE in buffer solution without surfactant (mg/mL). Drugs with D0 < 1 in pH 1.2, 4.5 and 6.8 are considered as high solubility drugs. Drugs with D0 > 1 in any of the buffer solutions are classified as low solubility drugs.

Series [4] is described as follows: Release study in human plasma at 37°C. Type of series: in vitro ADME. The method, then:
The amount of curcumin released from CUR-2GE in human plasma was determined at 37°C at various time points. A stock solution of CUR-2GE (100 μg/mL) in the diluent was prepared and diluted with pre-incubated human plasma at 37°C for 5 min to obtain the final concentration of 5 μg/mL. The mixture was incubated at 37°C for 5, 10, 20, 30 and 60 min and each aliquot (300 μL) was added with 300 μL of acetonitrile to stop the reaction and further centrifugated at 4°C at 14,000 rpm for 30 min. The concentration of CUR-2GE in the supernatant was analyzed using UPLC [19, 26]. Experiments were carried out in triplicates. The initial time point (0 min) was prepared by adding 300 μL acetonitrile to the pre-incubated human plasma. The percent peak area of CUR-2GE and its hydrolytic products was plotted against incubation time. The k and t1/2 values were determined using the linear pseudo-first-order model.

Where [5] appears, read: M0 927 mg, V0 250 mL, Cs at 37°C without 0.5% SLS.

Values after ≈ are worked out from the molar mass of the structure shown. Read-outs that look alike come from different tables or passages of the source.

Usually solubility stands for the dissolved amount per volume that the medium holds. As for `CCOC(=O)CCCNC(=O)Oc1ccc(/C=C/C(=O)/C=C(O)/C=C/c2ccc(OC(=O)NCCCC(=O)OCC)c(OC)c2)cc1OC` [CUR-2GE, Curcumin diethyl γ-aminobutyrate], the “inhibition of IL-6 release” value in series [1] is “to a greater extent than curcumin”. Besides, the logP in series [2] (n-octanol/buffer pH 4.5, pH 4.5, read-out: Log P (Log Po/buffer pH 4.5), n-octanol/buffer pH 4.5) was 3.43 ± 0.14; in series [2] (n-octanol/water, read-out: Log P (Log Po/w), n-octanol/water) it was 3.57 ± 0.19. Further, the “Solubility, buffer pH 1.2” value in series [3] (37°C, without SLS, <LOQ refers to less than 0.05 μg/mL) is “<LOQ”. For the same molecule, the “D0 x 10^3 (dose number), buffer pH 1.2” value in series [3] (setting [5]) is 74.16 x 10^3. The “D0 x 10^3 (dose number), buffer pH 4.5” value in series [3] (setting [5]) is reported as 5.80 x 10^3. Moreover, the “D0 x 10^3 (dose number), buffer pH 6.8” value in series [3] (setting [5]) is given as 10.89 x 10^3. The “degradation during solubility test” value in series [3] (all media except buffer pH 1.2 with SLS) is given as “less than 10%”; in series [3] (buffer pH 1.2 with SLS, 37°C), “more than 10%”. The solubility at 1 h in series [3] (buffer pH 4.5 with 0.5% SLS, pH 4.5, aqueous with cosolvent or surfactant or cyclodextrin, 37°C + 0.5% SLS, read-out: Solubility, buffer pH 4.5) is 23.35 ± 0.18 µg/mL; in series [3] (buffer pH 4.5 without SLS, pH 4.5, aqueous buffer, 37°C, without SLS, read-out: Solubility, buffer pH 4.5) it was 0.64 ± 0.51 µg/mL (≈ 0.937 µM); in series [3] (buffer pH 6.8 with 0.5% SLS, pH 6.8, aqueous with cosolvent or surfactant or cyclodextrin, 37°C + 0.5% SLS, read-out: Solubility, buffer pH 6.8), 148 ± 38.5 µg/mL; in series [3] (buffer pH 6.8 without SLS, pH 6.8, aqueous buffer, 37°C, without SLS, read-out: Solubility, buffer pH 6.8), 0.34 ± 0.5 µg/mL (≈ 0.498 µM); in series [3] (buffers pH 1.2, 4.5 and 6.8 without surfactant, aqueous buffer, pH 1.2-6.8, 37°C, without SLS, read-out: Solubility in buffers at all tested pH) it was less than 1 µg/mL. The “D0 (dose number) in buffers at all tested pH” value in series [3] (pH 1.2-6.8, 37°C, without SLS) is reported as greater than 1. In addition, the “rate in human plasma lower than that in buffer pH 7.4” value in series [4] was “approximately 8.7 fold”. For the same molecule, in series [4] (human plasma), the “k, pseudo-first-order hydrolysis” value came to 1.76 ± 0.30 h⁻¹. Moreover, the “time for sequential conversion to CUR-1GE and curcumin in plasma” value in series [4] (human plasma) is listed as no more than 1 h. In addition, the half-life at 5 μg/mL in series [4] (human plasma, read-out: t1/2, hydrolysis (converted)) is 24 ± 4.8 min.
